Legend:
Type in all cases: cell-based
[1] = test system: TNF-α; assay: Inhibition of TNF-α production by stimulated human peripheral blood leukocytes in vitro
Experimental: (§1) Test substances used in in vitro experiments were dissolved in dimethyl sulfoxide (DMSO) (Kemika, Croatia) at concentrations of 50 mM and 10 mM, and were further diluted to final concentrations of 50 μM and 10 μM in 1 mL Dulbecco's modified Eagle medium (DMEM) supplemented with 1% heat inactivated fetal bovine serum (FBS), 1% L-glutamine, 50 U/ml penicillin, 50 μg/ml streptomycin and 2.5 μg/mL Fungizone (amphotericin B). Media and all media supplements were purchased from Gibco, Australia, except the FBS was purchased from Sigma, USA.
(§2) Peripheral blood leukocytes (PBL) were obtained from venous blood of healthy volunteers by sedimentation on 2% dextran T-500 (Amersham Biosciences, USA) and subsequent centrifugations of leukocyte rich plasma.
(§3) Peripheral blood leukocytes (PBL), isolated as described above, were seeded in a 48-well plate at a concentration of 3 to 5×10^6 cell per well in culture medium consisting of RPMI 1640 medium (Institute of Immunology, Croatia) supplemented with 10% heat-inactivated fetal calf serum (FCS, Biowhittaker, USA), 100 U/ml penicillin (Gibco, Australia), 100 μg/ml streptomycin (Gibco, Australia) and 2 mM L-glutamine (Gibco, Australia), and preincubated with the test compounds for 2 h at 37° C., in an atmosphere of 5% CO2, and 90% humidity. Then, stimuli (Sigma, USA) were added to a final concentration of 2 μg/mL lipopolysaccharide (LPS), 1 μg/mL phorbol 12-myristate 13-acetate (PMA) or 120 μg/mL zymosan. Samples were incubated overnight under conditions described above. At the end of incubation, the supernatants were transferred to eppendorf tubes and centrifuged for 10 min at 1500×g. Concentrations of human TNF-α, IL-1β, IL-6 and IL-8 were determined in cell supernatants by sandwich ELISA, using capture and detection antibodies (R&D Systems, Minneapolis, Minn.) according to the manufacturer's recommendations.
(§4) Inhibition (as percentage) was calculated using the following formula: % inhibition=(1−concentration of cytokines in sample/concentration of cytokines in positive control)×100.
(§5) The positive control refers to LPS-, PMA- or zymosan-stimulated samples that were not preincubated with test compounds.

[2] = test system: IL-1α; assay: Inhibition of IL-1 production by stimulated human peripheral blood leukocytes in vitro
[3] = test system: IL-6; assay: Inhibition of IL-6 production by stimulated human peripheral blood leukocytes in vitro
Experimental: as §1, §2, §3, §4, §5

[4] = test system: IL-8; assay: Inhibition of IL-8 production by stimulated human peripheral blood leukocytes in vitro
Experimental: as §1, §2, §3, §4, §5

CCC1OC(=O)C(C)C(OC2CC(C)(OC)C(OCCCN3CCN(CCN(CC)CC)CC3)C(C)O2)C(C)C(OC2OC(C)CC(N(C)C)C2O)C(C)(O)CC(C)CN(C)C(C)C2OC(=O)OC12C (stereo not drawn) [Example 97, 4″-O-{3-[4-(2-Diethylamino-ethyl)-piperazin-1-yl]-propyl}azithromycin 11,12-cyclic carbonate]
Percentage of inhibition of TNF-α production ([1]; 10 μM, LPS-stimulated PBL): 0%
Percentage of inhibition of TNF-α production ([1]; 10 μM, PMA-stimulated PBL): 31%
Percentage of inhibition of TNF-α production ([1]; 10 μM, zymosan-stimulated PBL): 43%
Percentage of inhibition of TNF-α production ([1]; 50 μM, LPS-stimulated PBL): 62%
Percentage of inhibition of TNF-α production ([1]; 50 μM, PMA-stimulated PBL): 57%
Percentage of inhibition of TNF-α production ([1]; 50 μM, zymosan-stimulated PBL): 69%
Percentage of inhibition of IL-1α production ([2]; 10 μM, LPS-stimulated PBL): 0%
Percentage of inhibition of IL-1α production ([2]; 10 μM, PMA-stimulated PBL): 57%
Percentage of inhibition of IL-1α production ([2]; 10 μM, zymosan-stimulated PBL): 49%
Percentage of inhibition of IL-1α production ([2]; 50 μM, LPS-stimulated PBL): 0%
Percentage of inhibition of IL-1α production ([2]; 50 μM, PMA-stimulated PBL): 79%
Percentage of inhibition of IL-1α production ([2]; 50 μM, zymosan-stimulated PBL): 34%
Percentage of inhibition of IL-6 production ([3]; 10 μM, LPS-stimulated PBL): 0%
Percentage of inhibition of IL-6 production ([3]; 10 μM, PMA-stimulated PBL): 32%
Percentage of inhibition of IL-6 production ([3]; 10 μM, zymosan-stimulated PBL): 9%
Percentage of inhibition of IL-6 production ([3]; 50 μM, LPS-stimulated PBL): 14%
Percentage of inhibition of IL-6 production ([3]; 50 μM, PMA-stimulated PBL): 51%
Percentage of inhibition of IL-6 production ([3]; 50 μM, zymosan-stimulated PBL): 56%
Percentage of inhibition of IL-8 production ([4]; 10 μM, LPS-stimulated PBL): 0%
Percentage of inhibition of IL-8 production ([4]; 10 μM, PMA-stimulated PBL): 4%
Percentage of inhibition of IL-8 production ([4]; 10 μM, zymosan-stimulated PBL): 10%
Percentage of inhibition of IL-8 production ([4]; 50 μM, LPS-stimulated PBL): 23%
Percentage of inhibition of IL-8 production ([4]; 50 μM, PMA-stimulated PBL): 29%
Percentage of inhibition of IL-8 production ([4]; 50 μM, zymosan-stimulated PBL): 34%

CCC(=O)N(C)[C@H]1C[C@@H](C)O[C@@H](O[C@@H]2[C@@H](C)[C@H](O[C@H]3C[C@@](C)(OC)[C@@H](OC(=O)CCN(CC)CC)[C@H](C)O3)[C@@H](C)C(=O)O[C@H](CC)[C@@](C)(O)[C@H](O)[C@@H](C)NC(=O)[C@H](C)C[C@@]2(C)OC)[C@@H]1O [Example 63, 3′-N-methyl-3′-N-propionyl-4″-O-(3-diethylaminopropionyl)-6-O-methyl-9a-aza-9a-homoerythromycin A]
Percentage of inhibition of TNF-α production ([1]; 10 μM, LPS-stimulated PBL): 0%
Percentage of inhibition of TNF-α production ([1]; 10 μM, PMA-stimulated PBL): 21%
Percentage of inhibition of TNF-α production ([1]; 10 μM, zymosan-stimulated PBL): 0%
Percentage of inhibition of TNF-α production ([1]; 50 μM, LPS-stimulated PBL): 69%
Percentage of inhibition of TNF-α production ([1]; 50 μM, PMA-stimulated PBL): 73%
Percentage of inhibition of TNF-α production ([1]; 50 μM, zymosan-stimulated PBL): 87%
Percentage of inhibition of IL-1α production ([2]; 10 μM, LPS-stimulated PBL): 59%
Percentage of inhibition of IL-1α production ([2]; 10 μM, PMA-stimulated PBL): 52%
Percentage of inhibition of IL-1α production ([2]; 10 μM, zymosan-stimulated PBL): 45%
Percentage of inhibition of IL-1α production ([2]; 50 μM, LPS-stimulated PBL): 89%
Percentage of inhibition of IL-1α production ([2]; 50 μM, PMA-stimulated PBL): 81%
Percentage of inhibition of IL-1α production ([2]; 50 μM, zymosan-stimulated PBL): 100%
Percentage of inhibition of IL-6 production ([3]; 10 μM, LPS-stimulated PBL): 8%
Percentage of inhibition of IL-6 production ([3]; 10 μM, PMA-stimulated PBL): 24%
Percentage of inhibition of IL-6 production ([3]; 10 μM, zymosan-stimulated PBL): 0%
Percentage of inhibition of IL-6 production ([3]; 50 μM, LPS-stimulated PBL): 60%
Percentage of inhibition of IL-6 production ([3]; 50 μM, PMA-stimulated PBL): 62%
Percentage of inhibition of IL-6 production ([3]; 50 μM, zymosan-stimulated PBL): 90%
Percentage of inhibition of IL-8 production ([4]; 10 μM, LPS-stimulated PBL): 0%
Percentage of inhibition of IL-8 production ([4]; 10 μM, PMA-stimulated PBL): 0%
Percentage of inhibition of IL-8 production ([4]; 10 μM, zymosan-stimulated PBL): 0%
Percentage of inhibition of IL-8 production ([4]; 50 μM, LPS-stimulated PBL): 36%
Percentage of inhibition of IL-8 production ([4]; 50 μM, PMA-stimulated PBL): 3%
Percentage of inhibition of IL-8 production ([4]; 50 μM, zymosan-stimulated PBL): 44%

From patent US8080529B2, “Macrolides with anti-inflammatory activity” (Glaxo Group Limited, priority 2005, dated 2011)
